Usually IC50 stands for the concentration that inhibits the measured activity by half. The low end stands for inhibition by little substance, the high end for a need for much substance.

The subject of one test is MCF-7. As to the kind of experiment: MTT anti-proliferative assay on MCF-7. The test is classed as cell-based, human. The note with it: Homo sapiens, MCF7, 48 h, MTT, 48 hours treatment, mean ± SD (n = 2). As for the experimental part: (§1) All synthesized molecules were tested for their anticancer activity using the MTT assay protocol against the murine mammary carcinoma cell line (4T1), the human breast cancer (MCF-7), and the prostatic small cell carcinoma (PC-3). These compounds were then assessed for their IC50 determination at various concentrations. According to this finding, all synthesized compounds have the ability to inhibit the proliferation of a variety of cancer cell lines. […] It is more biased for MCF-7 cells over other cancer cells tested. Further, we contemplated conducting additional research to assess their anti-cancer effectiveness and mechanism (Fig. 3).
(§2) The mouse triple-negative breast cancer cell line (4T1), a human luminal A breast cancer cell line (MCF-7), a human prostate cancer cell line (PC-3), and a normal human embryonic kidney cell line (HEK-293) were procured from the National Center for Cell Science (NCCS, Pune, India). Dulbecco's Modified Eagle Medium (DMEM) (Himedia Laboratories Pvt Ltd, Mumbai, India) was used to cultivate MCF-7, 4T1, PC-3, and HEK-293 cells. All the mentioned cell lines were cultured in Dulbecco's Modified Eagle Medium (DMEM) supplemented with 10% heat-inactivated fetal bovine serum (Himedia Laboratories Pvt Ltd, Mumbai, India) and 1% antibiotic (Pen strep: A001), Himedia Laboratories Pvt Ltd, Mumbai, India. Cells were grown in a humidified environment with 5% CO2 at 37 °C. The experiment was performed using the yellow dye MTT [3-(4,5-dimethylthiazol-2-yl)-2, 5-diphenyltetrazolium bromide].
(§3) The MTT assay protocol was used to determine the IC50 values of the final compounds against different types of cancer cell lines and their selectivity over normal human cell lines. Dilutions of various concentrations were made from the compounds' DMSO stock solutions in the appropriate media. With a control solution of less than 1% DMSO in the appropriate media, dilutions from 200 μM to 0.781 μM concentrations were prepared using the serial dilution method. Cells were subcultured in their respective complete media according to the ATCC protocol before being seeded on a sterile 96-well plate with around 100 μL per well and a cell density of about 1 × 10^4 cells per well and incubated overnight. The medium was aspirated the following day, and adherent cells were treated with the respective concentrations 200 μM to 0.781 μM. The cells were then cultured for 48 hours in presence of compounds in the growth medium. The medium was aspirated post-treatment, and 100 μL of a 5 mg mL^−1 MTT solution in phenol red-free media was added. This mixture was then incubated for around 3 hours to check for the production of formazan crystals. The MTT solution was withdrawn, and 150 μL of DMSO was added to the wells to dissolve the generated crystals. The absorbance was measured at 570 nm and 650 nm. The percent cell viability was calculated for the IC50 values using GraphPad Prism™ version 8.0.1, and the results were shown as a dose–response curve.
`FC(F)(F)c1c(-c2ccco2)noc1-c1cccs1` [Compound 2f] came in with a concentration for half-maximal inhibition (IC50) of 5.32 µM.

In the case of `FC(F)(F)c1c(-c2cccs2)noc1/C=C/c1cccs1` [Compound 4, (E)-3-(thiophen-2-yl)-5-(2-(thiophen-2-yl)vinyl)-4-(trifluoromethyl)isoxazole], the midpoint of inhibition, the IC50, lay at 13.7 µM.

With `FC(F)(F)c1c(-c2cccs2)noc1-c1c[nH]cc1-c1cccs1` [Compound 5, 3-(thiophen-2-yl)-5-(4-(thiophen-2-yl)-1H-pyrrol-3-yl)-4-(trifluoromethyl)isoxazole], the midpoint of inhibition, the IC50, lay at 3.09 µM.

In the case of `c1ccc(-c2cc(-c3ccccc3)on2)cc1` [Compound 7, 3,5-diphenylisoxazole], the IC50 was 13 µM. Against the preceding compound, the IC50 is about 4.2-fold higher.

`c1ccc(-c2cc(-c3cccs3)on2)cc1` [Compound 9, 3-phenyl-5-(thiophen-2-yl)isoxazole] returned a half-maximal inhibitory concentration (IC50) of 10 µM. This IC50 and that of the compound before are within 1.5-fold of each other.

Turning to `COc1ccc(-c2cc(-c3cccs3)on2)cc1OC` [Compound 14, 3-(3,4-dimethoxyphenyl)-5-(thiophen-2-yl)isoxazole, reference compound], the half-maximal inhibitory concentration (IC50) is 19.72 ± 0.16 µM.

The same test, now with this note: MTT, 48 hours treatment, mean ± SD (n = 2).
For `FC(F)(F)c1c(-c2ccco2)noc1-c1cccs1` [Compound 2f], the IC50 was found to be 5.32 ± 0.19 µM.

Regarding `FC(F)(F)c1c(-c2cccs2)noc1/C=C/c1cccs1` [Compound 4, (E)-3-(thiophen-2-yl)-5-(2-(thiophen-2-yl)vinyl)-4-(trifluoromethyl)isoxazole], the IC50 came to 13.71 ± 0.13 µM.

`FC(F)(F)c1c(-c2cccs2)noc1-c1c[nH]cc1-c1cccs1` [Compound 5, 3-(thiophen-2-yl)-5-(4-(thiophen-2-yl)-1H-pyrrol-3-yl)-4-(trifluoromethyl)isoxazole] registered a half-inhibitory concentration (IC50) of 3.09 ± 0.11 µM.

In turn, `c1ccc(-c2cc(-c3ccccc3)on2)cc1` [Compound 7, 3,5-diphenylisoxazole] came in with an IC50 of 13.03 ± 0.13 µM.

`c1ccc(-c2cc(-c3cccs3)on2)cc1` [Compound 9, 3-phenyl-5-(thiophen-2-yl)isoxazole]: the midpoint of inhibition, the IC50, lay at 9.99 ± 0.1 µM.

A further test relates to 4T1. As to the kind of experiment: MTT anti-proliferative assay on 4T1. The test is classed as cell-based, mouse. The settings on record: Mus musculus, 4T1; MTT, 48 hours treatment, mean ± SD (n = 2). As for the experimental part: as §1, §2, §3
For orientation: Tetrazolium dyes change colour on reduction, which living cells bring about.
For `FC(F)(F)c1c(-c2ccco2)noc1-c1cccs1` [Compound 2f], the half-inhibitory concentration (IC50) stood at 18.12 ± 0.15 µM.

Compound `FC(F)(F)c1c(-c2cccs2)noc1/C=C/c1cccs1` [Compound 4, (E)-3-(thiophen-2-yl)-5-(2-(thiophen-2-yl)vinyl)-4-(trifluoromethyl)isoxazole] came in with an IC50 of 44.36 ± 0.2 µM.

`FC(F)(F)c1c(-c2cccs2)noc1-c1c[nH]cc1-c1cccs1` [Compound 5, 3-(thiophen-2-yl)-5-(4-(thiophen-2-yl)-1H-pyrrol-3-yl)-4-(trifluoromethyl)isoxazole] had a half-maximal inhibitory concentration (IC50) of 14.96 ± 0.13 µM. Against the preceding compound, the IC50 is about 3-fold lower.

Consider `c1ccc(-c2cc(-c3ccccc3)on2)cc1` [Compound 7, 3,5-diphenylisoxazole], for which the IC50 stood at 41.58 ± 0.21 µM.

`c1ccc(-c2cc(-c3cccs3)on2)cc1` [Compound 9, 3-phenyl-5-(thiophen-2-yl)isoxazole] came in with an IC50 of 36.24 ± 0.2 µM.

Compound `COc1ccc(-c2cc(-c3cccs3)on2)cc1OC` [Compound 14, 3-(3,4-dimethoxyphenyl)-5-(thiophen-2-yl)isoxazole, reference compound] registered an IC50 of 48.39 ± 0.19 µM.

The next test deals with PC-3. Nature of the test: MTT anti-proliferative assay on PC-3. It counts as cell-based, human. The note with it: Homo sapiens, PC-3; MTT, 48 hours treatment, mean ± SD (n = 2). On the procedure:
as §1, §2, §3
`FC(F)(F)c1c(-c2ccco2)noc1-c1cccs1` [Compound 2f] came in with an IC50 of 10.3 ± 0.15 µM.

As to `FC(F)(F)c1c(-c2cccs2)noc1/C=C/c1cccs1` [Compound 4, (E)-3-(thiophen-2-yl)-5-(2-(thiophen-2-yl)vinyl)-4-(trifluoromethyl)isoxazole], inhibition was half-maximal at 17.99 ± 0.13 µM (IC50).

The compound `FC(F)(F)c1c(-c2cccs2)noc1-c1c[nH]cc1-c1cccs1` [Compound 5, 3-(thiophen-2-yl)-5-(4-(thiophen-2-yl)-1H-pyrrol-3-yl)-4-(trifluoromethyl)isoxazole] had an IC50 of 9.56 ± 0.18 µM.

On to `c1ccc(-c2cc(-c3ccccc3)on2)cc1` [Compound 7, 3,5-diphenylisoxazole], for which half-maximal inhibition (IC50) was put at 17.42 ± 0.17 µM.

Take `c1ccc(-c2cc(-c3cccs3)on2)cc1` [Compound 9, 3-phenyl-5-(thiophen-2-yl)isoxazole]: the midpoint of inhibition, the IC50, lay at 14.5 ± 0.17 µM. This IC50 and that of the compound before are within 1.5-fold of each other.

On to `COc1ccc(-c2cc(-c3cccs3)on2)cc1OC` [Compound 14, 3-(3,4-dimethoxyphenyl)-5-(thiophen-2-yl)isoxazole, reference compound], for which the concentration for half-maximal inhibition (IC50) came to 30.21 ± 0.22 µM.

The subject of the next test is HEK-293. As to the kind of experiment: MTT cytotoxicity on normal HEK-293 cells. The note with it: Homo sapiens, HEK293, normal cell line, 48 hours treatment, mean ± SD (n = 2). It counts as cell-based.
Excerpt: We also investigated their in vitro cytotoxicity against a normal human embryonic kidney (HEK-293) cell line to determine their IC50.
as §2, §3
`FC(F)(F)c1c(-c2ccco2)noc1-c1cccs1` [Compound 2f] registered an IC50 of 86.98 ± 0.23 µM.

Take `FC(F)(F)c1c(-c2cccs2)noc1/C=C/c1cccs1` [Compound 4, (E)-3-(thiophen-2-yl)-5-(2-(thiophen-2-yl)vinyl)-4-(trifluoromethyl)isoxazole]: the half-maximal inhibitory concentration (IC50) worked out at 122 ± 0.16 µM. This IC50 and that of the compound before are within 1.5-fold of each other.

In the case of `FC(F)(F)c1c(-c2cccs2)noc1-c1c[nH]cc1-c1cccs1` [Compound 5, 3-(thiophen-2-yl)-5-(4-(thiophen-2-yl)-1H-pyrrol-3-yl)-4-(trifluoromethyl)isoxazole], the IC50 came to 84.86 ± 0.19 µM.

Regarding `c1ccc(-c2cc(-c3ccccc3)on2)cc1` [Compound 7, 3,5-diphenylisoxazole], the half-maximal inhibitory concentration (IC50) came out at 118.7 ± 0.21 µM.

`c1ccc(-c2cc(-c3cccs3)on2)cc1` [Compound 9, 3-phenyl-5-(thiophen-2-yl)isoxazole] registered a concentration for half-maximal inhibition (IC50) of 109.3 ± 0.19 µM.

Turning to `COc1ccc(-c2cc(-c3cccs3)on2)cc1OC` [Compound 14, 3-(3,4-dimethoxyphenyl)-5-(thiophen-2-yl)isoxazole, reference compound], the IC50 came to 131.5 ± 0.13 µM.

The values are drawn from article PMC11167338, “Exploring the impact of trifluoromethyl (–CF3) functional group on the anti-cancer activity of isoxazole-based molecules: design, synthesis, biological evaluation and molecular docking analysis” (RSC Advances, 2024).
